Measurements: PubChem BioAssay AID248 (DTP/NCI, 2004)
Where “and” joins values, the source holds several entries; their conditions need not be identical. Identical values can stand only once. Toxic doses and inconclusive results are not listed. Rule as the data show it: active = T/C of 150% or more; inactive = T/C below 125%.

System: L1210 leukemia ip in BDF1 mice, survival T/C
Test: NCI In Vivo Anticancer Drug Screen. Data for tumor model L1210 Leukemia (intraperitoneal) in B6D2F1 (BDF1) mice
Details: endpoint: mean survival time, higher = longer survival
Method in brief: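 Each compound was tested against a transplantable tumor grown in mice. The endpoint was survival, with treated animals benchmarked against vehicle controls as a simple ratio.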

[1] = dose: 100.0 mg/kg/injection, schedule: Q04DX003 (ip), vehicle: saline with Tween-80
[2] = dose: 200.0 mg/kg/injection, schedule: Q04DX003 (ip), vehicle: saline with Tween-80
[3] = dose: 400.0 mg/kg/injection, schedule: Q04DX003 (ip), vehicle: saline with Tween-80
[4] = dose: 100.0 mg/kg/injection, schedule: Q01DX009 (ip), vehicle: Klucel (hydroxypropylcellulose) (HPC)
[5] = dose: 200.0 mg/kg/injection, schedule: Q01DX009 (ip), vehicle: Klucel (hydroxypropylcellulose) (HPC)
[6] = dose: 400.0 mg/kg/injection, schedule: Q01DX009 (ip), vehicle: Klucel (hydroxypropylcellulose) (HPC)
[7] = dose: 100.0 mg/kg/injection, schedule: Q01DX001 (ip), vehicle: Klucel (hydroxypropylcellulose) (HPC)
[8] = dose: 200.0 mg/kg/injection, schedule: Q01DX001 (ip), vehicle: Klucel (hydroxypropylcellulose) (HPC)
[9] = dose: 400.0 mg/kg/injection, schedule: Q01DX001 (ip), vehicle: Klucel (hydroxypropylcellulose) (HPC)

Measured: T/C

OCCOc1ccc(OCCO)cc1
inactive: [1] 94 % of control | [2] 97 % of control | [3] 99 % of control

CCOC(=O)C(=O)CC1=NC2CCCCC2N(C)C1=O (stereo not given)
inactive: dose: 50.0 mg/kg/injection, schedule: Q01DX009 (ip), vehicle: saline 93 % of control | dose: 100.0 mg/kg/injection, schedule: Q01DX009 (ip), vehicle: saline 90 % of control | dose: 200.0 mg/kg/injection, schedule: Q01DX009 (ip), vehicle: saline 90 % of control

Cc1ccc([N+](=O)[O-])cc1NC(=O)NCc1ccccc1
inactive: [4] 89 % of control | [5] 89 % of control | [6] 97 % of control

O=C(NCCCl)NCC1CCCCO1 (stereo not given)
inactive: [7] 100 % of control | [4] 108 % of control | [8] 98 % of control | [5] 108 % of control | [9] 86 % of control | [6] 101 % of control

OC1(CBr)CCCCC1
inactive: [1] 102 % of control | [2] 98 % of control | [3] 95 % of control

Cc1ccc(NC(=S)N(C)C)cc1
inactive: [4] 104 % of control | [5] 108 % of control | [6] 108 % of control

CCOC(=O)COc1ccc([N+](=O)[O-])cc1
inactive: [7] 112 % of control | [4] 97 % of control and 98 % of control | dose: 100.0 mg/kg/injection, schedule: Q04DX002 (ip), vehicle: Klucel (hydroxypropylcellulose) (HPC) 96 % of control and 101 % of control | dose: 100.0 mg/kg/injection, schedule: Q04DX003 (ip), vehicle: Klucel (hydroxypropylcellulose) (HPC) 106 % of control | [8] 98 % of control | [5] 95 % of control and 105 % of control | dose: 200.0 mg/kg/injection, schedule: Q04DX002 (ip), vehicle: Klucel (hydroxypropylcellulose) (HPC) 96 % of control and 103 % of control | dose: 200.0 mg/kg/injection, schedule: Q04DX003 (ip), vehicle: Klucel (hydroxypropylcellulose) (HPC) 100 % of control | [9] 106 % of control | [6] 93 % of control and 101 % of control | dose: 400.0 mg/kg/injection, schedule: Q04DX002 (ip), vehicle: Klucel (hydroxypropylcellulose) (HPC) 92 % of control and 102 % of control | dose: 400.0 mg/kg/injection, schedule: Q04DX003 (ip), vehicle: Klucel (hydroxypropylcellulose) (HPC) 101 % of control

O=C(Nc1ccccc1C(F)(F)F)Oc1ccc(Cl)cc1Cc1ccccc1
inactive: dose: 100.0 mg/kg/injection, schedule: Q01DX009 (ip), vehicle: saline with Tween-80 93 % of control | dose: 100.0 mg/kg/injection, schedule: Q04DX002 (ip), vehicle: saline with Tween-80 117 % of control | dose: 200.0 mg/kg/injection, schedule: Q01DX009 (ip), vehicle: saline with Tween-80 101 % of control | dose: 200.0 mg/kg/injection, schedule: Q04DX002 (ip), vehicle: saline with Tween-80 98 % of control | dose: 400.0 mg/kg/injection, schedule: Q01DX009 (ip), vehicle: saline with Tween-80 101 % of control | dose: 400.0 mg/kg/injection, schedule: Q04DX002 (ip), vehicle: saline with Tween-80 98 % of control

Nc1ccc2c(c1)Cc1cc(N)c(Br)cc1-2
inactive: dose: 100.0 mg/kg/injection, schedule: Q01DX001 (ip), vehicle: carboxymethylcellulose (CMC) 105 % of control | dose: 200.0 mg/kg/injection, schedule: Q01DX001 (ip), vehicle: carboxymethylcellulose (CMC) 109 % of control | dose: 400.0 mg/kg/injection, schedule: Q01DX001 (ip), vehicle: carboxymethylcellulose (CMC) 94 % of control

CCC1(O)C(=O)OCc2c1cc(C(=O)OC)n(C)c2=O (stereo not given)
inactive: dose: 25.0 mg/kg/injection, schedule: Q01DX001 (ip), vehicle: saline with Tween-80 97 % of control | dose: 50.0 mg/kg/injection, schedule: Q01DX001 (ip), vehicle: saline with Tween-80 95 % of control | dose: 100.0 mg/kg/injection, schedule: Q01DX001 (ip), vehicle: saline with Tween-80 97 % of control | dose: 200.0 mg/kg/injection, schedule: Q01DX001 (ip), vehicle: saline with Tween-80 98 % of control

COc1cc(OC)c(C(=O)c2ccccc2N)c(OC)c1
inactive: [1] 89 % of control | [2] 87 % of control

Nc1nc(=O)n(CCCOc2ccccc2)cc1-c1ccc(Cl)c(Cl)c1
inactive: dose: 100.0 mg/kg/injection, schedule: Q01DX001 (ip), vehicle: gum acacia 99 % of control | dose: 200.0 mg/kg/injection, schedule: Q01DX001 (ip), vehicle: gum acacia 94 % of control

CC1(C)C[n+]2noc([O-])c2C(C)(C)C1
inactive: dose: 0.19 mg/kg/injection, schedule: Q04DX003 (ip), vehicle: alcohol 104 % of control | dose: 0.39 mg/kg/injection, schedule: Q01DX009 (ip), vehicle: alcohol 100 % of control | dose: 0.39 mg/kg/injection, schedule: Q04DX003 (ip), vehicle: alcohol 96 % of control | dose: 0.78 mg/kg/injection, schedule: Q01DX009 (ip), vehicle: alcohol 105 % of control | dose: 0.78 mg/kg/injection, schedule: Q04DX003 (ip), vehicle: alcohol 113 % of control | dose: 1.56 mg/kg/injection, schedule: Q01DX009 (ip), vehicle: alcohol 105 % of control | dose: 1.56 mg/kg/injection, schedule: Q04DX003 (ip), vehicle: alcohol 96 % of control

O=c1cc(/C=C/c2ccc3ccccc3n2)c2ccccc2[nH]1
inactive: dose: 100.0 mg/kg/injection, schedule: Q01DX001 (ip), vehicle: saline 98 % of control | dose: 200.0 mg/kg/injection, schedule: Q01DX001 (ip), vehicle: saline 96 % of control | dose: 400.0 mg/kg/injection, schedule: Q01DX001 (ip), vehicle: saline 102 % of control

CN(C)CC(OCCCc1ccccc1)C(Cl)(Cl)Cl (stereo not given)
inactive: [1] 109 % of control | [2] 101 % of control

OC(CI)C(O)C(O)C(O)CI (stereo not given)
inactive: dose: 50.0 mg/kg/injection, schedule: Q01DX009 (ip), vehicle: other 101 % of control | dose: 100.0 mg/kg/injection, schedule: Q01DX009 (ip), vehicle: other 101 % of control and 106 % of control | dose: 100.0 mg/kg/injection, schedule: Q## X024 (ip), vehicle: other 103 % of control | dose: 177.0 mg/kg/injection, schedule: Q01DX Z (ip), vehicle: methylcellulose (MC) 92 % of control | dose: 200.0 mg/kg/injection, schedule: Q01DX001 (ip), vehicle: other 103 % of control and 101 % of control | dose: 200.0 mg/kg/injection, schedule: Q01DX009 (ip), vehicle: other 95 % of control and 111 % of control | dose: 200.0 mg/kg/injection, schedule: Q## X003 (ip), vehicle: other 109 % of control | dose: 200.0 mg/kg/injection, schedule: Q## X024 (ip), vehicle: other 111 % of control | dose: 267.0 mg/kg/injection, schedule: Q01DX Z (ip), vehicle: methylcellulose (MC) 108 % of control | dose: 400.0 mg/kg/injection, schedule: Q01DX001 (ip), vehicle: other 97 % of control and 111 % of control | dose: 400.0 mg/kg/injection, schedule: Q01DX009 (ip), vehicle: other 101 % of control | dose: 400.0 mg/kg/injection, schedule: Q01DX Z (ip), vehicle: methylcellulose (MC) 93 % of control | dose: 400.0 mg/kg/injection, schedule: Q## X003 (ip), vehicle: other 109 % of control | dose: 400.0 mg/kg/injection, schedule: Q## X024 (ip), vehicle: other 108 % of control | dose: 600.0 mg/kg/injection, schedule: Q01DX Z (ip), vehicle: methylcellulose (MC) 98 % of control | dose: 800.0 mg/kg/injection, schedule: Q01DX001 (ip), vehicle: other 105 % of control and 101 % of control | dose: 800.0 mg/kg/injection, schedule: Q## X003 (ip), vehicle: other 109 % of control | dose: 800.0 mg/kg/injection, schedule: Q## X024 (ip), vehicle: other 124 % of control
